Test results reported in patent publication US10414767B2, “Deuterated quinazolinone compound and pharmaceutical composition comprising same” (Suzhou Zelgen Biopharmaceuticals Co., Ltd., priority 2014, dated 2019).

What follows are molecules tested against PI3Kδ kinase (Homo sapiens, UniProt O00329) (assay: In vitro pharmacodynamics evaluation to PI3K kinases).
Chain of PI3Kδ kinase (O00329 whole entry): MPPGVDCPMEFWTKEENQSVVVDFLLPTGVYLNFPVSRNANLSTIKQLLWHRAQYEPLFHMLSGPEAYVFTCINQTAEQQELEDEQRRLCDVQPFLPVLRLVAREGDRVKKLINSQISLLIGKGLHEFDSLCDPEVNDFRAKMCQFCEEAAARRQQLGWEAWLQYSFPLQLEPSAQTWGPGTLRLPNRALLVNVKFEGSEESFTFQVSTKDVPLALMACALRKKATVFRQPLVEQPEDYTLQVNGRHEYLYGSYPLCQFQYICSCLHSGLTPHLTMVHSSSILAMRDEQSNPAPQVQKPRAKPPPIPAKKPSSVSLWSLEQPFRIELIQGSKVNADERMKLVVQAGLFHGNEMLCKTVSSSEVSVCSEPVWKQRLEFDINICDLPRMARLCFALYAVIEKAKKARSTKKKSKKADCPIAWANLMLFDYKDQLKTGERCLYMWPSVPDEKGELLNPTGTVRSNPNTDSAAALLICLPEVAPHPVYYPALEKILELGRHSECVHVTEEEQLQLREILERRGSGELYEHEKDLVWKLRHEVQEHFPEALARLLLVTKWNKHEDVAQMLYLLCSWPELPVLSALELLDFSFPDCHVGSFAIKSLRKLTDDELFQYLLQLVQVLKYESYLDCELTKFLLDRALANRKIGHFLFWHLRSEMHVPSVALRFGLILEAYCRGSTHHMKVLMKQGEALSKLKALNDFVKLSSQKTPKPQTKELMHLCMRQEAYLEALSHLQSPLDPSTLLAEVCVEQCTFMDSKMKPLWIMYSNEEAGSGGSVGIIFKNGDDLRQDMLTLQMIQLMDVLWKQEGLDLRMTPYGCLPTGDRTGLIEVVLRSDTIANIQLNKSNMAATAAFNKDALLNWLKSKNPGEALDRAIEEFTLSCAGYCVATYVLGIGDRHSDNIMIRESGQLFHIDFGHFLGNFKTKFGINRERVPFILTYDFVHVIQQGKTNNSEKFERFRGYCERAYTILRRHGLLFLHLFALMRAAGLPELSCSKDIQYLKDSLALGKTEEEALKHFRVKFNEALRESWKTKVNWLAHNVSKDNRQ
Chain of PI3Kδ kinase (P27986 whole entry partner): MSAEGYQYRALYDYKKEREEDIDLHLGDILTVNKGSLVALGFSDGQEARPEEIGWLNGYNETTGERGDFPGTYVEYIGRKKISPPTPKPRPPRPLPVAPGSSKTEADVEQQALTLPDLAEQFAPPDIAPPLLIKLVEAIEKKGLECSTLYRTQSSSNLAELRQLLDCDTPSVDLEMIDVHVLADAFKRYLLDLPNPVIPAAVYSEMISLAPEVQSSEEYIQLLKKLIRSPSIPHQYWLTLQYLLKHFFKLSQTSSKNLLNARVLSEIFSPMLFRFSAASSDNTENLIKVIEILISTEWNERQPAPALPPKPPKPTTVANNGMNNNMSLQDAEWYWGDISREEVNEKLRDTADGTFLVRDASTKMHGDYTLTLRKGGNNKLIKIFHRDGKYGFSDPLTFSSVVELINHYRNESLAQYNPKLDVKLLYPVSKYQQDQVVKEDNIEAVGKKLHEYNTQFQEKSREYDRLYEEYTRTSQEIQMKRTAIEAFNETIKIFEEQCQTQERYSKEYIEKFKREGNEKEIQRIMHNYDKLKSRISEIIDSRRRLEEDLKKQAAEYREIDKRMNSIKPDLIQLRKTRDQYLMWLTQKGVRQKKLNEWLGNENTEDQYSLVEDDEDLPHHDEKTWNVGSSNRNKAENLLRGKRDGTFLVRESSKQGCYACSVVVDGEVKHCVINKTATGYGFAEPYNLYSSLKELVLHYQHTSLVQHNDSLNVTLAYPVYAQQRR

IC50, < 20 nM:
[2H][C@@](C)(Nc1ncnc2[nH]cnc12)c1nc2ccc(F)cc2c(=O)n1-c1ccccc1 [Example 8, (S)-2-(1-(9H-purin-6-yl-amino)-1-d-ethyl)-6-fluoro-3-phenyl quinazoline-4(3H)-ketone]
[2H]C([2H])([2H])[C@]([2H])(Nc1ncnc2[nH]cnc12)c1nc2ccc(F)cc2c(=O)n1-c1ccccc1 [Example 9, (S)-2-(1-(9H-purin-6-yl-amino)-1,2,2,2-d4-ethyl)-6-fluoro-3-phenyl quinazoline-4(3H)-ketone]
[2H]C([2H])([2H])[C@H](Nc1ncnc2[nH]cnc12)c1nc2ccc(F)cc2c(=O)n1-c1ccccc1 [Example 10, (S)-2-(1-(9H-purin-6-yl-amino)-2,2,2-d3-ethyl)-6-fluoro-3-phenyl quinazoline-4(3H)-ketone]
